Assays:
DIO mice = test: Chronic administration in DIO mice: body weight and food intake; format: in vivo, mouse; details: for body weight, head-to-head keto amino acids: 5 days, vs vehicle
Description: General animal information. Animal experiments were performed according to procedure approved by the Stanford University Administrative Panel on Laboratory Animal Care (APLAC). Mice were maintained in 12-hr light-dark cycles at 22° C. and ~50% relative humidity and fed a standard irradiated rodent chow diet. Where indicated, high-fat diet (D12492, Research Diets 60% kcal from fat) and ketogenic diet (D06040601, Research Diets, 80% kcal fat/15% kcal protein/5% kcal carbohydrate) was used. Male C57BL/6J (stock no. 000664) and male C57BL/6J DIO mice (stock no. 380050) were purchased from Jackson Laboratory. Male C57BL/6NCrl (stock no. 027) mice were purchased from Charles River Laboratory. Whole body CNDP2-KO mice (catalog number, C57BL/6NCrl-Cndp2em1 (IMPC) Mbp/Mmucd, RRID: MMRRC_043492-UCD) were obtained from the Mutant Mouse Regional Resource Center, a NCRR-NIH funded strain repository. For in vivo injection of mice with metabolites, compounds were dissolved in 18:1:1 (by volume) of saline/Kolliphor EL (Sigma Aldrich)/DMSO. Compounds were administered to mice daily via intraperitoneal injections at 5 μl/g body weight at the indicated doses. For all injection experiments, mice were mock injected with the vehicle for 3-5 days until body weights have stabilized. Sample sizes were determined on the basis of previous experiments using similar methodologies. For metabolite administration experiments, mice were randomly assigned to treatment groups. Experimenters were not blinded to groups.

[1] = Human ketone ester supplementation study, plasma metabolites; format: in vivo; details: 0.3 g/kg ketone ester, 60 min vs baseline
Description: Targeted metabolomics. Targeted measurements were performed using an Agilent 6470 triple quadrupole LC-MS instrument. MS analysis was performed using AJS in negative mode. The AJS source parameters were set as follows: the dry gas temperature was set at 250° C. with a gas flow of 12 l/min and the nebulizer pressure at 25 psi; the sheath gas temperature was set to 300° C. with the sheath gas flow set at 12 l/min; and the capillary voltage was set to 3,500 V. Separation of polar metabolites was performed as described above in the ‘Untargeted measurements of metabolites by LC-MS’ section. Multiple reaction monitoring was performed for the indicated metabolites with the listed dwell times, fragmentor voltage, collision energies, cell accelerator voltages and polarities. Quantification of the endogenous metabolite concentrations were performed by generating a standard curve with known concentrations of each metabolite. Metabolite standards were analyzed alongside the plasma samples using the same targeted triple quadrupole LC/MS method. A calibration standard curve generated from the metabolite standard concentrations and total peak areas were used to calculate the concentrations of each endogenous metabolite. The dilution of the plasma during the sample preparation was also taken into account for the quantification.
Human ketone ester supplementation study. Following screening, eligible subjects participated in a randomized, counter-balanced, double-blind, placebo-controlled crossover trial comparing BHB supplementation versus placebo, separated by a minimum of 2 days (ClinicalTrials.gov ID NCT04194450). Pre-menopausal women were tested in the follicular phase (days 3-9). Participants were asked to refrain from structured exercise and alcohol, limit physical activity, and follow a standardized diet (~50% carbohydrate, ~30% fat, ~20% protein) on the day before each trial. After refraining from medication use for 24 hours, participants reported to the Exercise, Metabolism and Inflammation Laboratory at the University of British Columbia-Okanagan in an overnight fasted state. Anthropometric measurements were obtained prior to insertion of an indwelling intravenous catheter into the antecubital vein for repeated blood sampling. Blood was collected into EDTA tubes (BD, 367863) and immediately centrifuged at 2000 rpm for 15 min and the top layer of plasma was aliquoted and frozen at −80 °C. After baseline (0) blood sample collection, the oral BHB supplement or placebo was consumed in liquid form (~30-65 mL). The BHB supplement (H.V.M.N®, USA) in the form of the ketone monoester (R)-3-hydroxybutyl (R)-3-hydroxybutyrate (AG®, TDeltaS, Oxford, UK) contained 0.4 g mL-1 BHB, natural flavoring, and <2% stevia leaf extract. The taste-matched placebo drink contained the same natural flavoring as the ketone supplement, stevia leaf extract, 5 mL of Bittrex stock (0.005 g of denatonium benzoate powder in 40 ml of water) and 1.5 mL of arrowroot stock (2 g of arrowroot powder in 50 ml of water) to match the bitter flavor and viscosity of the ketone monoester. Supplements were dispensed into opaque 80 ml bottles with volume calculated for 0.3 g BHB/kg body weight and labelled either A or B by a third-party researcher. Blinding was maintained until completion of data collection and analyses.

Structure (SMILES)	food intake and body weight, related metabolites and dipeptides (DIO mice; 50 mg/kg IP, 9 days)	body weight and food intake, conjugate vs components (DIO mice; 50 mg/kg/day IP, BHB or phenylalanine at the same doses, 9 days)	body weight gain, 2-week study (DIO mice; 50 mg/kg/day IP, 2 weeks)	daily food intake, 2-week study (DIO mice; 50 mg/kg/day IP, 2 weeks)	body weight gain (DIO mice; 50 mg/kg/day IP, 10-day period)	suppression of daily food intake, average (DIO mice; 50 mg/kg/day IP, 10-day period) [%]	body weight, head-to-head keto amino acids (DIO mice; 50 mg/kg/day IP)	weight loss compared with pair-fed controls (DIO mice; 50 mg/kg/day IP, 6 days)	elevation of plasma keto amino acid after ketone ester drink [1] [fold]
CC(O)CC(=O)N[C@@H](Cc1ccccc1)C(=O)O (some centres unmarked) [BHB-Phe, N-betahydroxybutyryl-phenylalanine]	suppressed food intake and body weight	efficiently suppressed body weight and food intake	concomitant reduction in body weight gain	durable suppression of daily food intake	concomitant reduction in body weight gain	−30	effective in suppressing body weight	lost the same amount of weight as pair-fed controls	3
CC(O)CC(=O)N[C@H](C(=O)O)C(C)C (some centres unmarked) [BHB-Val, N-betahydroxybutyryl-valine]							effective in suppressing body weight		2.5
